Our source for the DC50 values is patent US11530222B2, “Substituted pyrrolopyrimidine and pyrazolopyrimidine as Bruton's tyrosine kinase (BTK) degraders” (ACCUTAR BIOTECHNOLOGY INC., priority 2021, dated 2022).

In this assay the target is T1, BTK (Homo sapiens, UniProt Q06187).
T1 construct: BTK Degradative Activity of Exemplary Compounds of the Present Disclosure in a RAMOS Cell Line; host or cells: RAMOS
In words: BTK degradative activity in a RAMOS cell line (Western blot). Format: cell-based. The note with it: 6 hours after administration, read-out: RAMOS BTK Degradation DC50. The method, then:
RAMOS (ATCC) cells were plated in 24-well plates at 8×10^5 cells/well in the RPMI growth medium containing 10% heat-inactivated FBS and 1× Penicillin Streptomycin, and then incubated at 37° C. overnight. The following day, the test compound was administered to the cells by using 1000× compound stock solution prepared in DMSO at various concentrations. After administration of the compound, the cells were then incubated at 37° C. for 6 hours.
Upon completion, the cells were collected by centrifugation and lysed in Laemmli sample buffer (1×; VWR International). Proteins in cell lysate were separated by SDS-PAGE and transferred to Odyssey nitrocellulose membranes (Licor) with Iblot® dry blotting transfer system (ThermoFisher). Nonspecific binding was blocked by incubating membranes with Intercept Blocking Buffer (Licor) for 1 hour at room temperature with gentle shaking. The membranes were then incubated overnight at 4° C. with primary antibodies anti-BTK (Cell signaling, cat. #8547) and anti-GAPDH (Cell signaling, cat. #5179) diluted in Intercept Blocking Buffer containing 0.1% Tween 20. After washing 3 times with TBS-T, the membranes were incubated with IRDye® 800CW goat anti-mouse IgG (1:20,000, Licor) or IRDye® 800CW goat anti-rabbit IgG (1:20,000, Licor) for 1 hour. After TBS-T washes, membranes were rinsed in TBS and scanned on Odyssey® CLx Imaging System (Licor). The bands were quantified using Image Studio™ Software (Licor).
Table 3 summarizes the BTK degradative activity of exemplary compounds of the present disclosure in a RAMOS cell line 6 hours after administration. The DC50 values (i.e., the concentration of test compound at which 50% of the target protein is degraded) were calculated. A designation of “A” corresponds to a DC50 value less than 10 nM. A designation of “B” corresponds to a DC50 value greater than or equal to 10 nM and less than 100 nM. A designation of “C” corresponds to a DC50 value greater than or equal to 100 nM.

The term DC50 denotes the midpoint of the concentration-degradation curve.

T1 sequence (Q06187 whole entry): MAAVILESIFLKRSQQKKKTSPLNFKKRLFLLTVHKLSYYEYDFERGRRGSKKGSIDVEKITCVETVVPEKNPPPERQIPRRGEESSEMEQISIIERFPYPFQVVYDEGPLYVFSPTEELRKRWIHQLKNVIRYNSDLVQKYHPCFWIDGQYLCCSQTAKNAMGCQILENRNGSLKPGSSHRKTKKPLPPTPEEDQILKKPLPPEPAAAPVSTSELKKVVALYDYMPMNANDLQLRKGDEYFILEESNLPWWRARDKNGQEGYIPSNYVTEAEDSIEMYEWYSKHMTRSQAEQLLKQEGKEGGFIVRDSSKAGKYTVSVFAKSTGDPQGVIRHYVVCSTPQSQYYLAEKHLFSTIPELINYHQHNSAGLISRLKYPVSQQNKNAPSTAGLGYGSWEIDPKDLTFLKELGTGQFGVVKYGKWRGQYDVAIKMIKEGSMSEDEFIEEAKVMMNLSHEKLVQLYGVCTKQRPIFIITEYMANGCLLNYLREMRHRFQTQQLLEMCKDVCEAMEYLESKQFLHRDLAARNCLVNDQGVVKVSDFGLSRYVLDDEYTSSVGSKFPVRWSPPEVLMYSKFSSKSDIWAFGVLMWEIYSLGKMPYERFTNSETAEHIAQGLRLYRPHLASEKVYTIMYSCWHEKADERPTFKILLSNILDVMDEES

On to `O=C1CCC(N2C(=O)c3ccc(OCCCCCCN4CCN(c5ccc(C(=O)N6CCC[C@@H](Nc7ncnc8[nH]cc(C(=O)c9ccc(Oc%10ccccc%10)cc9Cl)c78)C6)cn5)CC4)cc3C2=O)C(=O)N1` (stereo partly drawn) [Compound 3, 5-((6-(4-(5-((R)-3-((5-(2-chloro-4-phenoxybenzoyl)-7H-pyrrolo [2,3-d]pyrimidin-4-yl)amino)piperidine-1-carbonyl)pyridin-2-yl)piperazin-1-yl)hexyl)oxy)-2-(2,6-dioxopiperidin-3-yl)isoindoline-1,3-dione], for which the DC50 is at least 100 nM.

For `COc1ccc(C(=O)N2CCN(CCCCC(=O)N3CCC(Nc4ncnc5[nH]cc(C(=O)c6ccc(Oc7ccccc7)cc6Cl)c45)CC3)CC2)cc1N1CCC(=O)NC1=O` [Compound 72, 1-(5-(4-(5-(4-((5-(2-chloro-4-phenoxybenzoyl)-7H-pyrrolo[2,3-d]pyrimidin-4-yl)amino)piperidin-1-yl)-5-oxopentyl)piperazine-1-carbonyl)-2-methoxyphenyl)dihydropyrimidine-2,4(1H,3H)-dione], the DC50 is at least 100 nM.

Take `O=C1CCC(N2C(=O)c3ccc(N4CCN(CCCCCN5CCC(Nc6ncnc7[nH]cc(C(=O)c8ccc(Oc9ccccc9)cc8Cl)c67)CC5)CC4)cc3C2=O)C(=O)N1` (centres unmarked) [Compound 34, 5-(4-(5-(4-((5-(2-chloro-4-phenoxybenzoyl)-7H-pyrrolo[2,3-d]pyrimidin-4-yl)amino)piperidin-1-yl)pentyl)piperazin-1-yl)-2-(2,6-dioxopiperidin-3-yl)isoindoline-1,3-dione]: the DC50 was under 10 nM.

In the case of `O=C1CCC(N2C(=O)c3ccc(N4CCN(CCCC(=O)N5CCC(Nc6ncnc7[nH]cc(C(=O)c8ccc(Oc9ccccc9)cc8Cl)c67)CC5)CC4)cc3C2=O)C(=O)N1` (centres unmarked) [Compound 23, 5-(4-(4-(4-((5-(2-chloro-4-phenoxybenzoyl)-7H-pyrrolo[2,3-d]pyrimidin-4-yl)amino)piperidin-1-yl)-4-oxobutyl)piperazin-1-yl)-2-(2,6-dioxopiperidin-3-yl)isoindoline-1,3-dione], the DC50 lay in the range of 10 to 100 nM.

On to `O=C1CCC(N2C(=O)c3ccc(N4CCN(CCCCCCN5CCC[C@@H](Nc6ncnc7[nH]cc(C(=O)c8ccc(Oc9ccccc9)cc8Cl)c67)C5)CC4)cc3C2=O)C(=O)N1` (stereo partly drawn) [Compound 15, 5-(4-(6-((R)-3-((5-(2-chloro-4-phenoxybenzoyl)-7H-pyrrolo[2,3-d]pyrimidin-4-yl)amino)piperidin-1-yl)hexyl)piperazin-1-yl)-2-(2,6-dioxopiperidin-3-yl)isoindoline-1,3-dione], for which the DC50 is at least 100 nM.

`O=C1CC[C@H](N2Cc3cc(N4CCN(CCCCCC(=O)N5CCC(Nc6ncnc7[nH]cc(C(=O)c8ccc(Oc9ccccc9)cc8Cl)c67)CC5)CC4)ccc3C2=O)C(=O)N1` [Compound 13, (S)-3-(5-(4-(6-(4-((5-(2-chloro-4-phenoxybenzoyl)-7H-pyrrolo[2,3-d]pyrimidin-4-yl)amino)piperidin-1-yl)-6-oxohexyl)piperazin-1-yl)-1-oxoisoindolin-2-yl)piperidine-2,6-dione]: the DC50 was under 10 nM.

Take `O=C1CC[C@H](N2Cc3cc(N4CCN(CC5CCN(C(=O)N6CCC[C@@H](Nc7ncnc8[nH]cc(C(=O)c9ccc(Oc%10ccccc%10)cc9Cl)c78)C6)CC5)CC4)ccc3C2=O)C(=O)N1` [Compound 32, (S)-3-(5-(4-((1-((R)-3-((5-(2-chloro-4-phenoxybenzoyl)-7H-pyrrolo[2,3-d]pyrimidin-4-yl)amino)piperidine-1-carbonyl)piperidin-4-yl)methyl)piperazin-1-yl)-1-oxoisoindolin-2-yl)piperidine-2,6-dione]: the DC50 was 10 to 100 nM.

In the case of `O=C1CC[C@H](N2Cc3cc(N4CCN(CCCC(=O)N5CCC[C@@H](Nc6ncnc7[nH]cc(C(=O)c8ccc(Oc9ccccc9)cc8Cl)c67)C5)CC4)ccc3C2=O)C(=O)N1` [Compound 20, (S)-3-(5-(4-(4-((R)-3-((5-(2-chloro-4-phenoxybenzoyl)-7H-pyrrolo[2,3-d]pyrimidin-4-yl)amino)piperidin-1-yl)-4-oxobutyl)piperazin-1-yl)-1-oxoisoindolin-2-yl)piperidine-2,6-dione], the DC50 lay within 10 to 100 nM.

For the compound `COc1ccc(C(=O)N2CCN(CCC3CCN(c4ccc(Nc5ncnc6[nH]cc(C(=O)c7ccc(Oc8ccccc8)cc7Cl)c56)cc4F)CC3)CC2)cc1N1CCC(=O)NC1=O` [Compound 76, 1-(5-(4-(2-(1-(4-((5-(2-chloro-4-phenoxybenzoyl)-7H-pyrrolo[2,3-d]pyrimidin-4-yl)amino)-2-fluorophenyl)piperidin-4-yl)ethyl)piperazine-1-carbonyl)-2-methoxyphenyl)dihydropyrimidine-2,4(1H,3H)-dione], the DC50 is at least 100 nM.

With `O=C1CCC(N2C(=O)c3ccc(OCCCCCCCN4CCN(c5ccc(C(=O)N6CCC[C@@H](Nc7ncnc8[nH]cc(C(=O)c9ccc(Oc%10ccccc%10)cc9Cl)c78)C6)cn5)CC4)cc3C2=O)C(=O)N1` (stereo partly drawn) [Compound 1, 5-((7-(4-(5-((R)-3-((5-(2-chloro-4-phenoxybenzoyl)-7H-pyrrolo [2,3-d]pyrimidin-4-yl)amino)piperidine-1-carbonyl)pyridin-2-yl)piperazin-1-yl)heptyl)oxy)-2-(2,6-dioxopiperidin-3-yl)isoindoline-1,3-dione], the half-maximal degradation concentration (DC50) was at least 100 nM.

As for `O=C1CCC(N2C(=O)c3ccc(OCCCCCN4CCN(c5ccc(C(=O)N6CCC[C@@H](Nc7ncnc8[nH]cc(C(=O)c9ccc(Oc%10ccccc%10)cc9Cl)c78)C6)cn5)CC4)cc3C2=O)C(=O)N1` (stereo partly drawn) [Compound 6, 5-((5-(4-(5-((R)-3-((5-(2-chloro-4-phenoxybenzoyl)-7H-pyrrolo [2,3-d]pyrimidin-4-yl)amino)piperidine-1-carbonyl)pyridin-2-yl)piperazin-1-yl)pentyl)oxy)-2-(2,6-dioxopiperidin-3-yl)isoindoline-1,3-dione], the DC50 is at least 100 nM.

In the case of `COc1ccc(C(=O)N2CCN(Cc3ccc(C(=O)N4CCC(Nc5ncnc6[nH]cc(C(=O)c7ccc(Oc8ccccc8)cc7Cl)c56)CC4)cc3)CC2)cc1N1CCC(=O)NC1=O` [Compound 80, 1-(5-(4-(4-(4-((5-(2-chloro-4-phenoxybenzoyl)-7H-pyrrolo[2,3-d]pyrimidin-4-yl)amino)piperidine-1-carbonyl)benzyl)piperazine-1-carbonyl)-2-methoxyphenyl)dihydropyrimidine-2,4(1H,3H)-dione], the DC50 was at least 100 nM.

`O=C1CCC(N2C(=O)c3ccc(N4CCN(CCCN5CCC(Nc6ncnc7[nH]cc(C(=O)c8ccc(Oc9ccccc9)cc8Cl)c67)CC5)CC4)cc3C2=O)C(=O)N1` (centres unmarked) [Compound 26, 5-(4-(3-(4-((5-(2-chloro-4-phenoxybenzoyl)-7H-pyrrolo[2,3-d]pyrimidin-4-yl)amino)piperidin-1-yl)propyl)piperazin-1-yl)-2-(2,6-dioxopiperidin-3-yl)isoindoline-1,3-dione]: the DC50 is 10 to 100 nM.

On to `O=C1CCC(N2C(=O)c3ccc(N4CCC(N5CC(CC(=O)N6CCC(Nc7ncnc8[nH]cc(C(=O)c9ccc(Oc%10ccccc%10)cc9Cl)c78)CC6)C5)CC4)cc3C2=O)C(=O)N1` (centres unmarked) [Compound 48, 5-(4-(3-(2-(4-((5-(2-chloro-4-phenoxybenzoyl)-7H-pyrrolo[2,3-d]pyrimidin-4-yl)amino)piperidin-1-yl)-2-oxoethyl)azetidin-1-yl)piperidin-1-yl)-2-(2,6-dioxopiperidin-3-yl)isoindoline-1,3-dione], for which the DC50 is under 10 nM.

As to `O=C1CCC(N2C(=O)c3ccc(N4CCN(CCCC(=O)N5CCC[C@@H](Nc6ncnc7[nH]cc(C(=O)c8ccc(Oc9ccccc9)cc8Cl)c67)C5)CC4)cc3C2=O)C(=O)N1` (stereo partly drawn) [Compound 19, 5-(4-(4-((R)-3-((5-(2-chloro-4-phenoxybenzoyl)-7H-pyrrolo[2,3-d]pyrimidin-4-yl)amino)piperidin-1-yl)-4-oxobutyl)piperazin-1-yl)-2-(2,6-dioxopiperidin-3-yl)isoindoline-1,3-dione], the DC50 lay within 10 to 100 nM.

As for `COc1ccc(C(=O)N2CCCN(Cc3ccc(C(=O)N4CCC(Nc5ncnc6[nH]cc(C(=O)c7ccc(Oc8ccccc8)cc7Cl)c56)CC4)cc3)CC2)cc1N1CCC(=O)NC1=O` [Compound 79, 1-(5-(4-(4-(4-((5-(2-chloro-4-phenoxybenzoyl)-7H-pyrrolo[2,3-d]pyrimidin-4-yl)amino)piperidine-1-carbonyl)benzyl)-1,4-diazepane-1-carbonyl)-2-methoxyphenyl)dihydropyrimidine-2,4(1H,3H)-dione], the DC50 is at least 100 nM.

In the case of `O=C1CCC(N2C(=O)c3ccc(N4CCN(CCCCC(=O)N5CCC(Nc6ncnc7[nH]cc(C(=O)c8ccc(Oc9ccccc9)cc8Cl)c67)CC5)CC4)cc3C2=O)C(=O)N1` (centres unmarked) [Compound 31, 5-(4-(5-(4-((5-(2-chloro-4-phenoxybenzoyl)-7H-pyrrolo[2,3-d]pyrimidin-4-yl)amino)piperidin-1-yl)-5-oxopentyl)piperazin-1-yl)-2-(2,6-dioxopiperidin-3-yl)isoindoline-1,3-dione], the 50% degradation concentration (DC50) was in the range of 10 to 100 nM.
